# Assay results: the RepoRT retention time repository
# Experiment: Agilent ZORBAX 300 SB-C18, 150 × 1 mm, 3.5 µm; A: water + 0.01% heptafluorobutyric acid; B: acetonitrile + 0.01% heptafluorobutyric acid; gradient (min/%B) 0/0 100/90
# Settings: stereoisomer not certain
row,LC retention time [min],Structure (SMILES)
1,20.1,O=C(Nc1ccc2c(c1)oc1ccccc12)c1ccc(C2CCCCC2)cc1
2,7.06,CNC(=S)C(=S)NC
3,16,Cc1ccc(CSc2ncccn2)c(CSc2ncccn2)c1C
4,12,CC(=O)c1cccc(N2C(=O)C3CCCCC3C2=O)c1 (stereo not drawn)
5,8.52,CCNC(=O)c1ccc(CN2CCc3ccccc3C2)cc1
6,16.6,c1ccc2c3c([nH]c2c1)CCCCC3
7,5.88,O=C(O)CC(CC(=O)O)c1ccccn1
8,8.6,c1ccc(CNc2ccccn2)cc1
9,9.57,Nc1ncnc(N2CCCc3ccccc32)n1
10,14.3,COC(=O)c1[nH]c2ccccc2c1-n1cccc1
11,13.4,CC(C)(C)NC(=S)NCc1ccccc1
12,6.85,NC(=O)C1CCN(C(=O)c2ccco2)CC1
13,6.39,C[N+]12CCC(CC1)C1CC(O)CCC12 (stereo not drawn)
14,10,Cc1n[nH]c(=O)nc1N=NCc1c[nH]c2ccccc12
15,8.12,CCN(CC)c1nc(N)nc(N2N=CC=NN2)n1
16,12.4,COC(=O)C1C2CC3c4[nH]c5cc(OC)ccc5c4CCN3CC2CC(OC(=O)c2cc(OC)c(OC)c(OC)c2)C1OC (stereo not drawn)
17,14.5,COc1ccc(C=CC(=O)c2ccccc2)cc1OC
18,7.73,c1ccc2ncncc2c1
19,12.2,COC(=O)c1ccc(NC(=O)CC(=O)Nc2ccc(C(=O)OC)cc2)cc1
20,11.8,CN(C)CCC=C1c2ccccc2CCc2ccccc21
21,13.9,COc1ccccc1CC(=O)Nc1cccc(C)c1
22,2.97,Cc1ccnc(=O)[nH]1
23,16.6,COc1ccccc1NC(=O)C(c1ccccc1)c1ccccc1

# Second part, the molecule before the results:
row,Structure (SMILES),LC retention time [min]
1,CN1CCn2c1nc(N1CCOCC1)nc2=O,7.25
2,CCN(CC)CCC(O)(c1ccccc1)C1CCCCC1 (stereo not drawn),11.3
3,NC1CCc2ccccc21 (stereo not drawn),7.85
4,CC(=O)Nc1cc(NC(C)=O)c(C)c(C(=O)O)c1,6.32
5,Cc1ccc(C)c(-c2cc(C)ncc2C)c1,10.6
6,O=CN1CCNCC1,2.79
7,Cc1ccc2[nH]cc(C=O)c2c1,9.98
8,CC1=NCCC1,4.35
9,CN(C)CCCN(C)C,7.19
10,CN(C)CCCN1CCC(O)C2CCCCC21 (stereo not drawn),7.19
11,Cc1ccc(-c2cc3ccccc3[nH]2)c(C)c1,17.6
12,O=C(NCCCCc1ccccc1)c1ccc2ccccc2n1,17.2
13,O=C(O)C1CCCc2c1[nH]c1ccccc21 (stereo not drawn),12.3
14,O=C(O)CN=C1NC2(CCCCC2)Cc2ccccc21,9.36
15,CC(C)NC(=O)C(=O)NCCCO,6.9
16,NC(=O)c1cnc2ccccc2n1,8.31
17,CCSc1ccc2c(c1)N(CCCN1CCN(C)CC1)c1ccccc1S2,12.8
18,CN(C)Cc1ccccc1,7.53
19,CCNC1(c2cccs2)CCCCC1,9.19
20,CC(C)N(C)C(C)(C)C,7.1
21,CCC(C)n1cc(C=C2NC(=O)NC2=O)c2ccccc21 (stereo not drawn),12.7
22,Nc1ccccc1NCCOc1ccccc1,11
23,CNc1cnccn1,6.32
24,CC(C)c1ccc(N)cc1,9
25,N=c1oc2ccccc2cc1C(=O)Nc1ccc(Oc2ccccc2)cc1,13
26,CC(=O)Oc1ccccc1C=Cc1nc2ccccc2c(=O)o1,14.8
27,Cc1cccc(C(=O)C=CN(C)C)c1,10.9
28,c1cn[nH]n1,2.1
29,O=C1C=CC(=O)N1C1CCCCC1,9.58
30,Nc1c(S(=O)(=O)O)ccc2c1C(=O)c1ccccc1C2=O,8.56
